What was measured:
[1] = system: Tyrosine-protein kinase ABL1 (Homo sapiens), P00519 [Q252H]; details: Compound concentration 100.0 nM
[2] = molecular target: Activin receptor type-1-like (Homo sapiens) (UniProt P37023); details: Compound concentration 100.0 nM
[3] = system: ALK tyrosine kinase receptor (Homo sapiens), Q9UM73 [L1196M]; details: Compound concentration 100.0 nM
[4] = molecular target: Protein-tyrosine kinase 6 (Homo sapiens) (UniProt Q13882); details: Compound concentration 100.0 nM
Sequence of Protein-tyrosine kinase 6 (Homo sapiens) (Q13882 whole entry, looked up): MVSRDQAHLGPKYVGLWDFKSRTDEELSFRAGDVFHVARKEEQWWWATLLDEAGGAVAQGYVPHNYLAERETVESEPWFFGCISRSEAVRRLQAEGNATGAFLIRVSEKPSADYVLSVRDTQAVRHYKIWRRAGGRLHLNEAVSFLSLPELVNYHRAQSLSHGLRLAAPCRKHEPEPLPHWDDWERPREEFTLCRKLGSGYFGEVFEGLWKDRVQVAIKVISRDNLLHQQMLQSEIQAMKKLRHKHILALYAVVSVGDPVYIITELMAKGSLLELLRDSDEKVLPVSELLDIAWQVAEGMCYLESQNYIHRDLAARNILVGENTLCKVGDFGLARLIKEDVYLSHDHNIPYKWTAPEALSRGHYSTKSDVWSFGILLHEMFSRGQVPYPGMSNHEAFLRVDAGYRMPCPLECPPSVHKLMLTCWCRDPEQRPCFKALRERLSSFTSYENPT

[5] = molecular target: Cyclin-dependent kinase 4 (Homo sapiens) (UniProt P11802); details: Compound concentration 100.0 nM
Sequence of Cyclin-dependent kinase 4 (Homo sapiens) (P11802 whole entry): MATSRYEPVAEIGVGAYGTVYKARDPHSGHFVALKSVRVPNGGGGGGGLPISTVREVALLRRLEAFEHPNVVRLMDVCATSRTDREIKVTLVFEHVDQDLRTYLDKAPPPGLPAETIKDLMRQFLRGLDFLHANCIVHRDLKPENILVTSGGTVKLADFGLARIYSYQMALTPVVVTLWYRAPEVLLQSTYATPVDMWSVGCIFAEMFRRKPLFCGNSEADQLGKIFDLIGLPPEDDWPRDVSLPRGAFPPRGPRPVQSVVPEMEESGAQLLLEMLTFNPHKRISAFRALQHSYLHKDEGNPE

[6] = molecular target: Serine/threonine-protein kinase DCLK3 (Homo sapiens) (UniProt Q9C098); details: Compound concentration 100.0 nM
[7] = molecular target: Myotonin-protein kinase (Homo sapiens) (UniProt Q09013); details: Compound concentration 100.0 nM
[8] = molecular target: T1, Ephrin type-B receptor 4 (Homo sapiens) (UniProt P54760); details: Compound concentration 100.0 nM
T1 sequence (whole entry): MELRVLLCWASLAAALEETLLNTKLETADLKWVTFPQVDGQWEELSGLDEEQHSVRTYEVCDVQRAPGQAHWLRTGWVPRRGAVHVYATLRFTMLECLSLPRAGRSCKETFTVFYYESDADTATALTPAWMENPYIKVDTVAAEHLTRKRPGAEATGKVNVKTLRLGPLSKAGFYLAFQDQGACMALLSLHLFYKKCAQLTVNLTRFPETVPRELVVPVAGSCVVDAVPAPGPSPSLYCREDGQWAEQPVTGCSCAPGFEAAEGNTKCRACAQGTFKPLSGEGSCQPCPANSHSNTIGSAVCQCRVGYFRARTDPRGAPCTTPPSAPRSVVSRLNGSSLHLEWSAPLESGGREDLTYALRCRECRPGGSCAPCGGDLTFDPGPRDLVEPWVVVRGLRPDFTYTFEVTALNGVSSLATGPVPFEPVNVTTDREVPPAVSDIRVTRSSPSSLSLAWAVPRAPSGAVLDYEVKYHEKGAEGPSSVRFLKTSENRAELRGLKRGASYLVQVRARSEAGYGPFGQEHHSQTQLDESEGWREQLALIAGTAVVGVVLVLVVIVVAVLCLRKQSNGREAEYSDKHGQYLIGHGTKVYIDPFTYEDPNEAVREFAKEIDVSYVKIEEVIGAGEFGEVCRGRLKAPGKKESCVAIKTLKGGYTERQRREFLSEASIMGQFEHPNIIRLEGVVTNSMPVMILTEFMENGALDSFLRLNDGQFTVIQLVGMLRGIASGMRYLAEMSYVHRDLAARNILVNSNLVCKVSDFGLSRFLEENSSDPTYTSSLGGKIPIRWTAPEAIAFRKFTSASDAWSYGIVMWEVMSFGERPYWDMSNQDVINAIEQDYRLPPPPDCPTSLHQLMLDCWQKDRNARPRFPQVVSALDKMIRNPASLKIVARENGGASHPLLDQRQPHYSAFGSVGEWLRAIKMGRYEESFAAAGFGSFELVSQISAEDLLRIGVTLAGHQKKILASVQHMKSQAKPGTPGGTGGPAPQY

[9] = molecular target: Mitogen-activated protein kinase 1 (Homo sapiens) (UniProt P28482); details: Compound concentration 100.0 nM
[10] = molecular target: Mitogen-activated protein kinase 15 (Homo sapiens) (UniProt Q8TD08); details: Compound concentration 100.0 nM
Sequence of Mitogen-activated protein kinase 15 (Homo sapiens) (Q8TD08 whole entry): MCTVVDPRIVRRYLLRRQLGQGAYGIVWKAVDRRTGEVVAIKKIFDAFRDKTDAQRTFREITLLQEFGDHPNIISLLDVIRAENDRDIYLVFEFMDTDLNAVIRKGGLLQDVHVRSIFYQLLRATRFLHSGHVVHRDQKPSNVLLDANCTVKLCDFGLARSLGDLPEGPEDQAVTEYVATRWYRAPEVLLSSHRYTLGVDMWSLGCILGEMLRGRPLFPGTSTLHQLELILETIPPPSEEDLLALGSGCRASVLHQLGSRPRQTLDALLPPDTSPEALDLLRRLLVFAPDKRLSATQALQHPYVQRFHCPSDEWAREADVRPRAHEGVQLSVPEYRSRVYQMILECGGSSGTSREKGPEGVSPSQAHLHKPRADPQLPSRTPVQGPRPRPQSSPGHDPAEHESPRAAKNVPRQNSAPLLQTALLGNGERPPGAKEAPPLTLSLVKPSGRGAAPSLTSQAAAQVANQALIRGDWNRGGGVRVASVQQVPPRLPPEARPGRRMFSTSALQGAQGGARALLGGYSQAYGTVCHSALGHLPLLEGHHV

[11] = molecular target: Tyrosine-protein kinase Fgr (Homo sapiens) (UniProt P09769); details: Compound concentration 100.0 nM
Sequence of Tyrosine-protein kinase Fgr (Homo sapiens) (P09769 2-529 limits assumed): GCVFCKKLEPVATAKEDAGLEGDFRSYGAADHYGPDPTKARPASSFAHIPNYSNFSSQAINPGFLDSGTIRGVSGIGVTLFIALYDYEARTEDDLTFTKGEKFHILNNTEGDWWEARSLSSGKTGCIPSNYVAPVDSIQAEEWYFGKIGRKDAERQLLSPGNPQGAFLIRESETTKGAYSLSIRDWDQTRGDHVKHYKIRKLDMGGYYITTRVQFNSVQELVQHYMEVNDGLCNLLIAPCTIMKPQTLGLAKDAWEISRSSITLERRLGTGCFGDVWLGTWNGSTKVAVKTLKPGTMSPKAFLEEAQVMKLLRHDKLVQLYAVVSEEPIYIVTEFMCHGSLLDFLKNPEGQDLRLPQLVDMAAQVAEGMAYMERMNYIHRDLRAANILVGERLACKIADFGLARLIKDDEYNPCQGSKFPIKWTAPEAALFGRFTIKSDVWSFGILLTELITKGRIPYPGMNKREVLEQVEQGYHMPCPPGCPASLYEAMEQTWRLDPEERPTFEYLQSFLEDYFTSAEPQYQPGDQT

[12] = molecular target: Receptor-type tyrosine-protein kinase FLT3 (Homo sapiens) (UniProt P36888); details: Compound concentration 100.0 nM
Sequence of Receptor-type tyrosine-protein kinase FLT3 (Homo sapiens) (P36888 whole entry): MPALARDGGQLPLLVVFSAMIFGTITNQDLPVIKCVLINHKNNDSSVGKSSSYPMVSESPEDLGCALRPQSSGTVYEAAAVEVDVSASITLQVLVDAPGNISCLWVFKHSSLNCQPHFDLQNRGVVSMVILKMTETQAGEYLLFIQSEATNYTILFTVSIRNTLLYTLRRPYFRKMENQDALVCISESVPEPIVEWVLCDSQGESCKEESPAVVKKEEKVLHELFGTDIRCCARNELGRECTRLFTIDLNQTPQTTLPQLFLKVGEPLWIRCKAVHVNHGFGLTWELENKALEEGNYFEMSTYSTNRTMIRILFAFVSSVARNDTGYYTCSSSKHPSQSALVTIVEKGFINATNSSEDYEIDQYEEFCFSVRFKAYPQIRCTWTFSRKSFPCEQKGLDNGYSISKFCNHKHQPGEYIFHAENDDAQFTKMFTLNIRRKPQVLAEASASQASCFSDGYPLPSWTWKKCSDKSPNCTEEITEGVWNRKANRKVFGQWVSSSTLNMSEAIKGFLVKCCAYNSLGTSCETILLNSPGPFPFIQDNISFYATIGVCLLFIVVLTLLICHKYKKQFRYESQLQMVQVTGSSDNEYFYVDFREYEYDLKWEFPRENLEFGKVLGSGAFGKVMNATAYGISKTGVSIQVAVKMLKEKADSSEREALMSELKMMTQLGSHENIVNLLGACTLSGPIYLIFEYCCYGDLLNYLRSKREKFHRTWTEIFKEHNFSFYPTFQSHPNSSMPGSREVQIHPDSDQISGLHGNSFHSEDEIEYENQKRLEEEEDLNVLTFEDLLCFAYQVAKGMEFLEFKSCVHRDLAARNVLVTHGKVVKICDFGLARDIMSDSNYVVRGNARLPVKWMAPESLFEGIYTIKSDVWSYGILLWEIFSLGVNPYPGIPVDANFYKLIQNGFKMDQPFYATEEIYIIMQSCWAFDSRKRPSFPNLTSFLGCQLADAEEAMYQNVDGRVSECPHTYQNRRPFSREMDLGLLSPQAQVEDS

[13] = molecular target: Homeodomain-interacting protein kinase 1 (Homo sapiens) (UniProt Q86Z02); details: Compound concentration 100.0 nM
[14] = molecular target: Leukocyte tyrosine kinase receptor (Homo sapiens) (UniProt P29376); details: Compound concentration 100.0 nM
[15] = molecular target: Mitogen-activated protein kinase kinase kinase kinase 3 (Homo sapiens) (UniProt Q8IVH8); details: Compound concentration 100.0 nM
[16] = molecular target: Serine/threonine-protein kinase MARK1 (Homo sapiens) (UniProt Q9P0L2); details: Compound concentration 100.0 nM
[17] = molecular target: Serine/threonine-protein kinase MRCK alpha (Homo sapiens) (UniProt Q5VT25); details: Compound concentration 100.0 nM
[18] = molecular target: Serine/threonine-protein kinase 26 (Homo sapiens) (UniProt Q9P289); details: Compound concentration 100.0 nM
[19] = molecular target: Serine/threonine-protein kinase Nek11 (Homo sapiens) (UniProt Q8NG66); details: Compound concentration 100.0 nM
Sequence of Serine/threonine-protein kinase Nek11 (Homo sapiens) (Q8NG66 whole entry): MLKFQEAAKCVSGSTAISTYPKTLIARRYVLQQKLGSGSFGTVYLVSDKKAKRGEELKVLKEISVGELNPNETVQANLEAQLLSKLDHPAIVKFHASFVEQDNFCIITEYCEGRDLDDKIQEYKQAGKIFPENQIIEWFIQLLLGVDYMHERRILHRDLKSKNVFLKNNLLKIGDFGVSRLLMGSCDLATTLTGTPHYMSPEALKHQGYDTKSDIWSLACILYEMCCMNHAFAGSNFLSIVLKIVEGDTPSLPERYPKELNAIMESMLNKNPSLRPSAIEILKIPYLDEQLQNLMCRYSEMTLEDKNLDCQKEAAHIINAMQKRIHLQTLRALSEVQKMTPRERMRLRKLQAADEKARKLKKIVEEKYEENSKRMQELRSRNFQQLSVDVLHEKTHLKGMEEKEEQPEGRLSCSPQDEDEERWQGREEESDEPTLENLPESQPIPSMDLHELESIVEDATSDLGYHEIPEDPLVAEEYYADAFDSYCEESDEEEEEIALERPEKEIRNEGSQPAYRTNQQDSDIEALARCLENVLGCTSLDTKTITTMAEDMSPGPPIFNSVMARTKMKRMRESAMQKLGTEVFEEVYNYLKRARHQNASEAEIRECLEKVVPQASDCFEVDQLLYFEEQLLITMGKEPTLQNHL

[20] = molecular target: Serine/threonine-protein kinase PAK 1 (Homo sapiens) (UniProt Q13153); details: Compound concentration 100.0 nM
[21] = molecular target: Serine/threonine-protein kinase PAK 4 (Homo sapiens) (UniProt O96013); details: Compound concentration 100.0 nM
[22] = molecular target: Serine/threonine-protein kinase pim-3 (Homo sapiens) (UniProt Q86V86); details: Compound concentration 100.0 nM
[23] = molecular target: cAMP-dependent protein kinase catalytic subunit PRKX (Homo sapiens) (UniProt P51817); details: Compound concentration 100.0 nM
[24] = system: Proto-oncogene tyrosine-protein kinase receptor Ret (Homo sapiens), P07949 [V804L]; details: Compound concentration 100.0 nM
Sequence of Proto-oncogene tyrosine-protein kinase receptor Ret (Homo sapiens), P07949 [V804L] (P07949 whole entry V804L): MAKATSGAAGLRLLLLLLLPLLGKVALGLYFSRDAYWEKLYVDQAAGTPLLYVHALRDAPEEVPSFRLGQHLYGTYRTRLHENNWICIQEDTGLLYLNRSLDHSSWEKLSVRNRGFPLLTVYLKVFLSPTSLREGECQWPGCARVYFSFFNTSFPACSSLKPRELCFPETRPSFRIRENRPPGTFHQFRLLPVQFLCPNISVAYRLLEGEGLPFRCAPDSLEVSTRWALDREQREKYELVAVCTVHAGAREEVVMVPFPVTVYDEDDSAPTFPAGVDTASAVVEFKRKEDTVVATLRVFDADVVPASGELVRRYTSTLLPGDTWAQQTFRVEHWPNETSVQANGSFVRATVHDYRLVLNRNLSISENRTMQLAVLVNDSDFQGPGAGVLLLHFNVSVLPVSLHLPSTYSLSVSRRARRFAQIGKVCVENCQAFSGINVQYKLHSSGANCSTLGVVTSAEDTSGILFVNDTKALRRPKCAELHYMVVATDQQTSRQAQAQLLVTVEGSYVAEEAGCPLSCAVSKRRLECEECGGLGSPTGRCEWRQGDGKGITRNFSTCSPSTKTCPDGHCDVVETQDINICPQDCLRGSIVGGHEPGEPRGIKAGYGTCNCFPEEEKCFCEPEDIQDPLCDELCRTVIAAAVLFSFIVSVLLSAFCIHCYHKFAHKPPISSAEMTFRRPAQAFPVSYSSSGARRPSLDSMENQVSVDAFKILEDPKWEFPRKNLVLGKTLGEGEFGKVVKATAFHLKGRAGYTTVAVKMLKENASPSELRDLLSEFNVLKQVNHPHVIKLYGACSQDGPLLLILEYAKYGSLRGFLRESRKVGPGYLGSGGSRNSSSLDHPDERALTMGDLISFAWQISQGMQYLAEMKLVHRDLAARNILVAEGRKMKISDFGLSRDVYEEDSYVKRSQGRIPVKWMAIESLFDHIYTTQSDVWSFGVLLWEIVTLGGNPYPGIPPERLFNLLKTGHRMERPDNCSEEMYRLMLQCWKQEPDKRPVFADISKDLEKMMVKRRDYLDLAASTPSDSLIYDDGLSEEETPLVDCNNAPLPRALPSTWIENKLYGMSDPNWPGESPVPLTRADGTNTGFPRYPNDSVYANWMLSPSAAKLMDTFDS

[25] = molecular target: Rho-associated protein kinase 2 (Homo sapiens, UniProt O75116); details: Compound concentration 100.0 nM
[26] = molecular target: Ribosomal protein S6 kinase alpha-3 (Homo sapiens) (UniProt P51812); details: Compound concentration 100.0 nM
[27] = molecular target: SRSF protein kinase 1 (Homo sapiens) (UniProt Q96SB4); details: Compound concentration 100.0 nM
[28] = molecular target: Serine/threonine-protein kinase 33 (Homo sapiens) (UniProt Q9BYT3); details: Compound concentration 100.0 nM
[29] = molecular target: Non-receptor tyrosine-protein kinase TYK2 (Homo sapiens) (UniProt P29597); details: Compound concentration 100.0 nM
[30] = molecular target: 5-hydroxytryptamine receptor 1B (Homo sapiens) (UniProt P28222); details: Compound concentration 10.0 uM
[31] = molecular target: Kappa-type opioid receptor (Homo sapiens, UniProt P41145); details: Compound concentration 10.0 uM
[32] = molecular target: Histamine H2 receptor (Homo sapiens) (UniProt P25021); details: Compound concentration 10.0 uM
Sequence of Histamine H2 receptor (Homo sapiens) (P25021 whole entry): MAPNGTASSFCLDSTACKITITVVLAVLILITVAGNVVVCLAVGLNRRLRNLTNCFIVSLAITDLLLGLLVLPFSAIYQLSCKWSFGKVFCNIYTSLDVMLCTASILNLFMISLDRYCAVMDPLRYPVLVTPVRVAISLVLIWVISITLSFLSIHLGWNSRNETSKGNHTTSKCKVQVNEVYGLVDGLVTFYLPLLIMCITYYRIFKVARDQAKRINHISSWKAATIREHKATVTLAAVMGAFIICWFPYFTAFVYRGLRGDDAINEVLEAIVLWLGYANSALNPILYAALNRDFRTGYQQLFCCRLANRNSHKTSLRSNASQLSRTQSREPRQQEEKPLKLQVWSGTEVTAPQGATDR

| SMILES | residual activity [1] [%] | residual activity [2] [%] | residual activity [3] [%] | residual activity [4] [%] | residual activity [5] [%] | residual activity [6] [%] | residual activity [7] [%] | residual activity [8] [%] | residual activity [9] [%] | residual activity [10] [%] | residual activity [11] [%] | residual activity [12] [%] | residual activity [13] [%] | residual activity [14] [%] | residual activity [15] [%] | residual activity [16] [%] | residual activity [17] [%] | residual activity [18] [%] | residual activity [19] [%] | residual activity [20] [%] | also measured |
| --- | --- | --- | --- | --- | --- | --- | --- | --- | --- | --- | --- | --- | --- | --- | --- | --- | --- | --- | --- | --- | --- |
| Cc1c[nH]c2nccc(Oc3c(F)cc(Nc4cc(Cl)nc(N)n4)cc3F)c12 [BAY-549] | 91 | 100 | 99 | 100 | 100 | 97 | 56 | 100 | 99 | 100 | 100 | 75 | 100 | 99 | 91 | 82 | 98 | 100 | 75 | 100 | residual activity [21]: 100%; residual activity [22]: 100%; residual activity [23]: 77%; residual activity [24]: 100%; residual activity [25]: 0.9%; residual activity [26]: 79%; residual activity [27]: 100%; residual activity [28]: 85%; residual activity [29]: 89%; inhibition [30]: -5.28%; inhibition [31]: 64.6%; inhibition [32]: 23.7% |
| Cn1cc(Cl)c2c(Oc3c(F)cc(Nc4cc(Cl)nc(N)n4)cc3F)ccnc21 [BAY-4900] | 94 | 93 | 100 | 86 | 100 | 89 | 86 | 100 | 100 | 100 | 100 | 83 | 100 | 87 | 100 | 100 | 84 | 92 | 85 | 100 | residual activity [21]: 100%; residual activity [22]: 100%; residual activity [23]: 100%; residual activity [24]: 91%; residual activity [25]: 83%; residual activity [26]: 71%; residual activity [27]: 85%; residual activity [28]: 100%; residual activity [29]: 85%; inhibition [30]: 5.3%; inhibition [31]: 54.4%; inhibition [32]: 16.7% |
